Data published in ChEMBL document CHEMBL1201862, “PubChem BioAssay data set” (2004).
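Dose response: 5 concentrations. Exposure: 48 h. Format: 96-well plates. Endpoint: linear interpolation; highest concentration if not reached. GI50: concentration for 50% inhibition of growth.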 The source made the active and inactive calls. No stated cut-off is given here; in the data, active = GI50 up to about 1.1 µM and inactive = higher.

Assays:
Experiment in all cases: growth of human tumour cells (NCI), 48 h
SR = system: SR
HL-60 = system: HL-60
SF-268 = system: SF-268
SK-MEL-28 = system: SK-MEL-28
RPMI-8226 = system: RPMI-8226
IGROV-1 = system: IGROV-1
NCI-H460 = system: NCI-H460
NCI-H23 = system: NCI-H23
OVCAR-4 = system: OVCAR-4
LOX IMVI = system: LOX IMVI
CAKI-1 = system: CAKI-1
SK-MEL-2 = system: SK-MEL-2
OVCAR-3 = system: OVCAR-3
SNB-75 = system: SNB-75
786-0 = system: 786-0
HCT-116 = system: HCT-116
SNB-19 = system: SNB-19
RXF 393 = system: RXF 393
HCC 2998 = system: HCC 2998

Measured: GI50

O=[N+]([O-])c1nccn1COCCF
inactive: SR > 100 µM | HL-60 > 100 µM | SF-268 > 100 µM | SK-MEL-28 > 100 µM | RPMI-8226 > 100 µM | IGROV-1 > 100 µM | NCI-H460 > 100 µM | NCI-H23 > 100 µM | OVCAR-4 > 100 µM | LOX IMVI > 100 µM | CAKI-1 > 100 µM | SK-MEL-2 > 100 µM | OVCAR-3 > 100 µM | SNB-75 64.6 µM | 786-0 > 100 µM | HCT-116 > 100 µM | SNB-19 > 100 µM

[O-]/N=[N+](/[O-])C1CCCCC1=[N+]1CCOCC1 (stereo unspecified)
inactive: SR > 100 µM | HL-60 > 100 µM | SF-268 > 100 µM | SK-MEL-28 > 100 µM | RPMI-8226 > 100 µM | NCI-H460 > 100 µM | NCI-H23 > 100 µM | OVCAR-4 > 100 µM | CAKI-1 > 100 µM | SK-MEL-2 > 100 µM | OVCAR-3 > 100 µM | 786-0 > 100 µM | HCT-116 > 100 µM | SNB-19 > 100 µM

COc1ccc2[nH]c3c(c2c1)[C@H]1CCC(C(C)(C)C)C[C@H]1[C@H]1C(=O)N(c2ccccc2)C(=O)[C@@H]31 (stereo partly specified)
inactive: RXF 393 9.42 µM | HL-60 39.4 µM | SF-268 13.1 µM | HCC 2998 36 µM | SK-MEL-28 44.3 µM | RPMI-8226 33.3 µM | IGROV-1 > 58.7 µM | NCI-H460 6.9 µM | NCI-H23 12.1 µM | OVCAR-4 3.3 µM | LOX IMVI 20.7 µM | CAKI-1 12 µM | SK-MEL-2 20 µM | OVCAR-3 23.3 µM | SNB-75 5.97 µM | 786-0 3.86 µM | HCT-116 12.4 µM | SNB-19 16.3 µM

O=C(CNC(=O)OCc1ccccc1)NCCCCC(NC(=O)OCc1ccccc1)C(=O)NC(CCCCNC(=O)CNC(=O)OCc1ccccc1)C(=O)OCc1ccccc1 (stereo unspecified)
inactive: SR > 62.5 µM | HL-60 > 62.5 µM | SF-268 > 62.5 µM | HCC 2998 > 62.5 µM | SK-MEL-28 > 62.5 µM | RPMI-8226 > 62.5 µM | IGROV-1 > 62.5 µM | NCI-H460 > 62.5 µM | NCI-H23 > 62.5 µM | OVCAR-4 > 62.5 µM | LOX IMVI > 62.5 µM | CAKI-1 > 62.5 µM | SK-MEL-2 > 62.5 µM | OVCAR-3 > 62.5 µM | SNB-75 > 62.5 µM | 786-0 > 62.5 µM | HCT-116 > 62.5 µM | SNB-19 > 62.5 µM

CC(C)OP(=O)(OC(C)C)/C(=N/Nc1ccc([N+](=O)[O-])cc1)NN
inactive: SR > 100 µM | HL-60 > 100 µM | SF-268 > 100 µM | HCC 2998 > 100 µM | SK-MEL-28 > 100 µM | RPMI-8226 88.3 µM | NCI-H460 > 100 µM | NCI-H23 55.2 µM | OVCAR-4 > 100 µM | LOX IMVI > 100 µM | CAKI-1 > 100 µM | SK-MEL-2 > 100 µM | OVCAR-3 > 100 µM | SNB-75 83.2 µM | 786-0 > 100 µM | HCT-116 > 100 µM | SNB-19 > 100 µM

Cc1ccc(C2C(Cl)C(=O)N2NC(=O)c2ccc(N)cc2)cc1 (stereo unspecified)
inactive: HL-60 12.1 µM | HCC 2998 > 100 µM | SK-MEL-28 12.4 µM | RPMI-8226 24.2 µM | IGROV-1 8.97 µM | NCI-H460 17.6 µM | NCI-H23 16 µM | OVCAR-4 29 µM | LOX IMVI 11.2 µM | CAKI-1 20.1 µM | SK-MEL-2 1.33 µM | OVCAR-3 17.4 µM | SNB-75 47.6 µM | 786-0 15.5 µM | HCT-116 15 µM | SNB-19 18.4 µM

O=C1c2ccccc2C(=O)c2nc3c(O)cccc3cc21
inactive: SR 3.18 µM | RXF 393 > 100 µM | SF-268 7.96 µM | HCC 2998 35.9 µM | SK-MEL-28 > 100 µM | RPMI-8226 6.47 µM | IGROV-1 57.8 µM | NCI-H460 9.08 µM | NCI-H23 > 100 µM | OVCAR-4 12.9 µM | LOX IMVI 13.9 µM | CAKI-1 93.1 µM | SK-MEL-2 > 100 µM | OVCAR-3 1.87 µM | SNB-75 68.1 µM | 786-0 6.38 µM | HCT-116 4.12 µM | SNB-19 14.7 µM

C1=C(c2ccccc2)SC(N2CCCCC2)S1 (stereo unspecified)
inactive: SR 90.8 µM | RXF 393 > 100 µM | HL-60 69 µM | SF-268 > 100 µM | RPMI-8226 59.7 µM | IGROV-1 > 100 µM | NCI-H460 > 100 µM | NCI-H23 > 100 µM | OVCAR-4 > 100 µM | LOX IMVI 72.9 µM | SK-MEL-2 > 100 µM | OVCAR-3 > 100 µM | SNB-75 55.6 µM | HCT-116 > 100 µM | SNB-19 > 100 µM

Cn1c(=N)n[n+]([O-])c2ccccc21
inactive: RXF 393 19.6 µM | HL-60 2.17 µM | HCC 2998 20.6 µM | IGROV-1 3.46 µM | NCI-H23 2.16 µM | OVCAR-4 1.94 µM | LOX IMVI 2.59 µM | CAKI-1 2.31 µM | SK-MEL-2 3.47 µM | OVCAR-3 1.55 µM | SNB-75 3.78 µM | 786-0 8.2 µM | HCT-116 4.14 µM

CC(=O)c1sc(Nc2nnc(-c3ccc(-c4nnc(Nc5nc(C)c(C(C)=O)s5)o4)cc3)o2)nc1C
inactive: SR > 100 µM | RXF 393 > 100 µM | HL-60 > 100 µM | SF-268 > 100 µM | HCC 2998 > 100 µM | SK-MEL-28 > 100 µM | RPMI-8226 > 100 µM | IGROV-1 > 100 µM | NCI-H460 > 100 µM | NCI-H23 > 100 µM | OVCAR-4 > 100 µM | LOX IMVI > 100 µM | CAKI-1 > 10 µM | OVCAR-3 > 100 µM | 786-0 > 100 µM | HCT-116 > 100 µM | SNB-19 > 100 µM

O=C(CC1(O)C(=O)Nc2ccc(Br)cc21)c1cccc([N+](=O)[O-])c1 (stereo unspecified)
inactive: RXF 393 23.8 µM | HL-60 27.7 µM | SF-268 39 µM | HCC 2998 65 µM | SK-MEL-28 35.8 µM | RPMI-8226 18.3 µM | NCI-H460 > 100 µM | NCI-H23 43.9 µM | OVCAR-4 23.1 µM | LOX IMVI 32.4 µM | CAKI-1 40.9 µM | SK-MEL-2 54.7 µM | OVCAR-3 38.7 µM | SNB-75 26.7 µM | 786-0 42.7 µM | SNB-19 61.5 µM

COC(=O)c1cc(CC(C)C)c2c(c1)[nH]c1ccccc12
inactive: SF-268 > 100 µM | HCC 2998 70.8 µM | SK-MEL-28 > 100 µM | IGROV-1 > 100 µM | NCI-H460 > 100 µM | NCI-H23 49 µM | OVCAR-4 > 100 µM | LOX IMVI > 100 µM | CAKI-1 > 100 µM | SK-MEL-2 > 100 µM | OVCAR-3 > 100 µM | SNB-75 18.2 µM | 786-0 > 100 µM | HCT-116 > 100 µM | SNB-19 > 100 µM

O=c1ccc(=O)c2c(=O)c3ccccc3c(=O)c1=2
inactive: RXF 393 48.3 µM | HL-60 17.2 µM | SF-268 35.6 µM | HCC 2998 54.7 µM | SK-MEL-28 > 100 µM | RPMI-8226 27.5 µM | IGROV-1 > 100 µM | NCI-H460 29.3 µM | NCI-H23 70.3 µM | OVCAR-4 61 µM | LOX IMVI 42.6 µM | CAKI-1 50 µM | SK-MEL-2 20.8 µM | OVCAR-3 21.2 µM | SNB-75 > 100 µM | 786-0 39.7 µM | HCT-116 20.7 µM | SNB-19 41.3 µM

CCC12CCC(O)C1N(C)CCC2Sc1ccccc1 (stereo unspecified)
inactive: RXF 393 > 100 µM | HL-60 22.9 µM | SF-268 75.5 µM | HCC 2998 29.9 µM | SK-MEL-28 75.3 µM | RPMI-8226 59.3 µM | IGROV-1 > 100 µM | NCI-H460 > 100 µM | NCI-H23 > 100 µM | OVCAR-4 > 100 µM | LOX IMVI > 100 µM | SK-MEL-2 > 100 µM | OVCAR-3 > 100 µM | SNB-75 24.8 µM | 786-0 > 100 µM | HCT-116 70 µM | SNB-19 > 100 µM

O=C(c1cc2ccccc2[nH]1)C(O)(c1cc2ccccc2[nH]1)c1cc2ccccc2[nH]1
inactive: SR > 246 µM | RXF 393 > 246 µM | HL-60 > 246 µM | SF-268 > 246 µM | HCC 2998 > 246 µM | SK-MEL-28 > 246 µM | RPMI-8226 > 246 µM | IGROV-1 > 246 µM | NCI-H460 > 246 µM | NCI-H23 112 µM | LOX IMVI > 246 µM | CAKI-1 > 246 µM | SK-MEL-2 > 246 µM | OVCAR-3 20 µM | 786-0 > 246 µM | HCT-116 16.6 µM | SNB-19 > 246 µM

Nc1ccn(CC(CO)CC(c2ccccc2)P(=O)(O)O)c(=O)n1 (stereo unspecified)
inactive: RXF 393 > 100 µM | HL-60 > 100 µM | SF-268 > 100 µM | HCC 2998 > 100 µM | SK-MEL-28 > 100 µM | RPMI-8226 > 100 µM | IGROV-1 > 100 µM | NCI-H460 > 100 µM | NCI-H23 > 100 µM | LOX IMVI > 100 µM | CAKI-1 > 100 µM | SK-MEL-2 > 100 µM | OVCAR-3 > 100 µM | 786-0 > 100 µM | HCT-116 > 100 µM | SNB-19 > 100 µM

Cc1cn([C@@H]2C[C@H](CO)[C@@H](O)C2)c(=O)[nH]c1=O
inactive: HL-60 > 100 µM | SF-268 > 100 µM | HCC 2998 > 100 µM | SK-MEL-28 > 100 µM | IGROV-1 > 100 µM | NCI-H460 > 100 µM | NCI-H23 > 100 µM | OVCAR-4 > 100 µM | LOX IMVI > 100 µM | SK-MEL-2 > 100 µM | OVCAR-3 > 100 µM | SNB-75 78.9 µM | HCT-116 > 100 µM | SNB-19 > 100 µM
